From US6284787A, “Use of R-(+)-α-lipoic acid, R-(-)-dihydrolipoic acid and metabolites in the form of the free acid or as salts or esters or amides for the preparation of drugs for the treatment of diabetes mellitus as well as of its sequelae” (Asta Medica Aktiengesellschaft, priority 1993, dated 2001)

How the values were obtained:
[1] = tested on: alloxan-induced diabetes; conditions: animal model; cited from earlier work
[2] = tested on: rat diaphragms; conditions: in vitro, cited from earlier work
[3] = biological target: T1, pyruvate dehydrogenase (Rattus norvegicus, UniProt P08461+P26284+P49432+Q6P6R2); assay: Pyruvate dehydrogenase activity after chronic administration in tissues of the spontaneously diabetic rat; type: in vivo; conditions: for Pyruvate dehydrogenase activity, trend: spontaneously diabetic rats, 50 mg/kg daily in tail vein, heart muscle, trend after two administrations
T1 construct: The tissue was homogenized; from tissue; host or cells: heart muscle of spontaneously diabetic BB rats
T1 sequence (P26284 30-390): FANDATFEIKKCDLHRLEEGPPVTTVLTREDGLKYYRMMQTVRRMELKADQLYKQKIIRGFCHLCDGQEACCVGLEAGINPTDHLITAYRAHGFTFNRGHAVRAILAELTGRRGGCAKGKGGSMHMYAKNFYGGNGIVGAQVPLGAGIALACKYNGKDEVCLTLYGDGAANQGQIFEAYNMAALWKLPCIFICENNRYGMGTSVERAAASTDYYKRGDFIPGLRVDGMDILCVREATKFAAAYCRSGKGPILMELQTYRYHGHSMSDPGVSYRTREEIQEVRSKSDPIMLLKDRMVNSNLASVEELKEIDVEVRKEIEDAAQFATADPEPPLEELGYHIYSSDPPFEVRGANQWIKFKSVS
T1 sequence (P49432 31-359): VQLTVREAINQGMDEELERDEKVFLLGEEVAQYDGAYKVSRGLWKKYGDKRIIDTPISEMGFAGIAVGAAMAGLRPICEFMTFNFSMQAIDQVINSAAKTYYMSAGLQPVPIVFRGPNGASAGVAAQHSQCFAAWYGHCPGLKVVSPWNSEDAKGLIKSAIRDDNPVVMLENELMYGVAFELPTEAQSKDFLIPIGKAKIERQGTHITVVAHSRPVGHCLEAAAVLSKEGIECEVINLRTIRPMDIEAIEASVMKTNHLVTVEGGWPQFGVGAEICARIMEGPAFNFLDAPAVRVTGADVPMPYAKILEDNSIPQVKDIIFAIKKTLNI
T1 sequence (P08461 86-632 limits assumed): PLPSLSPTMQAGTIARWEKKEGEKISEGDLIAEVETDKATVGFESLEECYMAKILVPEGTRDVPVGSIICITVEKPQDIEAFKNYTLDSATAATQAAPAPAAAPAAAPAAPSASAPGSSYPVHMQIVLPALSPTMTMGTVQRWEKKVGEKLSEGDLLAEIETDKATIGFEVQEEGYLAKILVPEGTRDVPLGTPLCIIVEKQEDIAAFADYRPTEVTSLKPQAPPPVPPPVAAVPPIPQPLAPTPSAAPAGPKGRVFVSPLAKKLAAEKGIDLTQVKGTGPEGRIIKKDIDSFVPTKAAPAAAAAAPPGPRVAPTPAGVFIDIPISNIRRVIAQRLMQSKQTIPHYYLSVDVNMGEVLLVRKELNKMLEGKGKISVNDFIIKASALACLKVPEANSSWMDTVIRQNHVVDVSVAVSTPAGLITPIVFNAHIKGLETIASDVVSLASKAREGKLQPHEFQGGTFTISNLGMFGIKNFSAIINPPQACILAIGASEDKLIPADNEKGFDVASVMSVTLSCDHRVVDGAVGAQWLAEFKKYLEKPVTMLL
T1 sequence (Q6P6R2 36-509): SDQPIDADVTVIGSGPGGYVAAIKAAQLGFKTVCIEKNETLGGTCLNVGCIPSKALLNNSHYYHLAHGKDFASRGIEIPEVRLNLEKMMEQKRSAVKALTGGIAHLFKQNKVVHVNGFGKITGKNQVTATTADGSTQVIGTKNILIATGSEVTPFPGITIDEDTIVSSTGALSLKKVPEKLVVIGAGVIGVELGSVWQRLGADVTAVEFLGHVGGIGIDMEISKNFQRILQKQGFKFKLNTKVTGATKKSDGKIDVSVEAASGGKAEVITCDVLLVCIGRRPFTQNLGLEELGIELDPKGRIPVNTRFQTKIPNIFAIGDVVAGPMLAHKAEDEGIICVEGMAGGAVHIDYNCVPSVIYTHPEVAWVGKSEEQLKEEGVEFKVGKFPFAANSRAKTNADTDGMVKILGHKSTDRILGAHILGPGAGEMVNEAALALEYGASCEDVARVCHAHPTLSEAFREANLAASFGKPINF
Protocol: After the manifestation of the diabetes, spontaneously diabetic rats (BB-Wol BB, of the Moellegard Company, Denmark, n=10/group) received 0.3 mL of neutral 0.12 M (corresponding to 50 mg/kg of body weight) R-(+)-α-lipoic acid or S-(-)-α-lipoic acid daily, administered in the vein of the tail. A control group received physiological salt solution. After 7 days, the animals were sacrificed. The pyruvate dehydrogenase activity was determined in the heart muscle. The tissue was homogenized.
Pyruvate+NAD^+ +CoA→Acetyl-CoA+CO2 +NADH+H^+
The extinction of the reduced coenzyme is measured at 339 nm in cuvettes with a Shimadzu UV 210 Detector at 37° C. The isolation of the enzyme complex (R. Koeplin, Ph.D. Thesis, University of Tuebingen, FRG, 1988, C. J. Stanley, R. N. Perham, Biochem. J. 191, 147-154, 1980) and the enzyme assay (O. H. Lowry et al. J. Biol. Chem. 256, 815-822, 1951) were carried out as described. The protein was measured by the method of Loary (N. Bashan et al., Am. J. Physiol. m262 (Cell Physiol. 31): C682-690, 1992).

[4] = tested on: L6 myotubes; assay: Glucose assimilation in muscle cells (3H-2-desoxyglucose uptake); type: cell-based; conditions: for effect on glucose assimilation together with insulin, in words: 2.5 mM with insulin 200 nM; for effect on glucose assimilation, in words: compared with other enantiomer or insulin (200 nM); for Glucose Assimilation R / Glucose Assimilation S: table 1; for Glucose Assimilation Insulin: insulin 200 nM
Protocol: The tissue muscle cells (L6 myotubes) were prepared in 24-bole plates and differentiated. After incubation with the test substances, an assay was carried out to determine hexose assimilation (^3 H-2-desoxyglucose, 10 μM, 10 minutes). […] After the cells were washed and then lysed with NaOH, the radioactivity absorbed was measured in a counter. Parallel experimental batches were carried out with cytochalasin-B, in order to determine the glucose transporter-dependent glucose translocations.
The results can be expressed as pmol/min×mg of protein.

[5] = tested on: GLUT1 Glucose Transporters; assay: Translocation of GLUT1 glucose transporters in L6 myotubes (Western blot of cell fractions); type: cell-based; conditions: for GLUT1 translocation, Light Microsomal Fraction / GLUT1 translocation, Plasma Membrane: one hour, control 1.00
Protocol: (§1) L6 myotubes in 15 cm dishes (n=4 to 5) were enlisted and incubated for one hour with 2.5 mM lipoate in MEM with 5 mM of glucose and 2% of fetal bovine serum. The cells were removed, homogenized and worked up in fractions (4° C.). The working up was carried out in an HEPES buffer with a defined addition of protease inhibitor. The cell fractions were obtained in 6 defined centrifuging steps. The fractions were added to a 10% polyacrylamide gel for a Western Blot analysis. The glucose transporters were determined with anti-GLUT1 and anti-GLUT4 antibodies using iodine-labeled protein A and autoradiographic detection.

[6] = tested on: GLUT 4; assay: Translocation of GLUT4 glucose transporters in L6 myotubes; type: cell-based
Protocol: as §1

[7] = tested on: GLUT1; assay: Cellular content of GLUT1 glucose transporters in L6 myotubes; type: cell-based; conditions: for Content of GLUT1: L6 myotubes, 2.5 mM, 4 hours of incubation, control 1.00; for cellular content of GLUT1, in words: after four hours of incubation
Protocol: (§2) L6 myotubes were incubated for 4 hours with 2.5 mM lipoic acid enantiomers in an MEM medium with 2% fetal bovine serum and 5 mM glucose. The glucose transporters were detected as described above. The membrane fraction is obtained after a single centrifugation at 210,000 g.

[8] = tested on: GLUT4; assay: Cellular content of GLUT4 glucose transporters in L6 myotubes; type: cell-based; conditions: for Content of GLUT4: 2.5 mM, 4 hours of incubation, control 1.00; for cellular content of GLUT4, in words: after four hours of incubation
Protocol: as §2

[9] = tested on: streptozotocin-induced diabetes; assay: Diabetes induced tissue damage, streptozotocin-induced diabetes; type: in vivo, Wistar rats; conditions: for mortality in comparison to the control / pathologically changed parameter glycosilated hemoglobin, in words / pathologically changed parameter protein oxidation, in words: streptozotocin-induced diabetes; for % Glycosilated Hemoglobin: 1.65 g/kg of food for 14 weeks, streptozotocin diabetic rats, control 9.7 ± 1.5
Protocol: Thioct acid enantiomers were administered for 14 weeks by mouth, together with the food (1.65 g/kg of food), to female Wistar rats (n=3 to 6/group) in separate groups.
In the eighth week, streptozotocin diabetes was induced in the animals. Six weeks after the induction of the diabetes, the surviving animals were sacrificed. Tissue was taken and analyzed.

| Compound | Pyruvate dehydrogenase activity, trend [3] | effect on glucose assimilation together with insulin, in words [4] | effect on glucose assimilation, in words ([4]; 2.5 mM) | translocation of glucose transporters Glut 1 from the cytosol to the plasma membrane, in words [5] | GLUT1 translocation, Light Microsomal Fraction ([5]; table 4, enantiomers 2.5 mM) [relative units] | GLUT1 translocation, Plasma Membrane ([5]; table 4, enantiomers 2.5 mM) [relative units] | GLUT1 translocation, Light Microsomal Fraction ([5]; table 5, enantiomers 2.5 mM) [relative units] | translocation of glucose transporters GLUT 4 from the cytosol to the plasma membrane, in words [6] | Content of GLUT1 [7] [arbitrary units] | cellular content of GLUT1, in words [7] | Content of GLUT4 ([8]; L6 myotubes) [arbitrary units] | cellular content of GLUT4, in words [8] | mortality in comparison to the control [9] | pathologically changed parameter glycosilated hemoglobin, in words [9] | pathologically changed parameter protein oxidation, in words [9] | % Glycosilated Hemoglobin ([9]; table 7) [%] | % Glycosilated Hemoglobin ([9]; table 8) [%] | % Glycosilated Hemoglobin ([9]; table 9) [%] | further results |
| --- | --- | --- | --- | --- | --- | --- | --- | --- | --- | --- | --- | --- | --- | --- | --- | --- | --- | --- | --- |
| O=C(O)CCCCC1CCSS1 (racemic) [R,S-(+,-)-α-lipoic acid] |  |  |  |  |  |  |  |  |  |  |  |  |  |  |  |  |  |  | effect on blood sugar [1]: blood sugar-lowering effect; effect relative to that of insulin ([2]; Haugaard): additive; glucose assimilation by muscles ([2]; racemate from Calbiochem): increases |
| O=C(O)CCCC[C@@H]1CCSS1 [R-(+)-α-lipoic acid] | increased | not additive | comparable to that of insulin | stimulates | 0.46 ± 0.06 | 1.56 ± 0.25 | 0.46 ± 0.06 | stimulates | 1.81 ± 0.01 | increases | 1.55 ± 0.24 | increases | reduced | corrects | corrects | 8.4 ± 1.3 | 8.4 ± 1.3 | 8.4 ± 1.3 | stimulation of glucose assimilation compared to the S enantiomer, factor ([4]; 2.5 mM): greater than 2; Glucose Assimilation R ([4]; 2.5 mM, incubation time 15): 16.7 ± 0.6 pmol/mg/min; Glucose Assimilation R ([4]; 2.5 mM, incubation time 30): 15.9 ± 0.9 pmol/mg/min; Glucose Assimilation R ([4]; 2.5 mM, incubation time 60): 26.1 ± 0.9 pmol/mg/min; Glucose Assimilation R ([4]; 2.5 mM, incubation time 120): 27.0 ± 0.4 pmol/mg/min; Glucose Assimilation R-(+)-α-Liponic Acid ([4]; table 2, 2.5 mM, incubation 15 min): 23.2 ± 0.5 pmol/mg/min; Glucose Assimilation R-(+)-α-Liponic Acid ([4]; table 2, 2.5 mM, incubation 30 min): 21.1 ± 0.4 pmol/mg/min; Glucose Assimilation R-(+)-α-Liponic Acid ([4]; table 2, 2.5 mM, incubation 60 min): 25.7 ± 0.5 pmol/mg/min |
| O=C(O)CCCC[C@H]1CCSS1 [S-(-)-α-lipoic acid, reference compound] | Lowered | decreases the effect of insulin | less effective | has no effect or has an inhibiting effect | 0.38 ± 0.09 | 0.93 ± 0.37 | 0.38 ± 0.09 | has no effect or has an inhibiting effect | 1.08 ± 0.01 | has no effect or lowers the cellular content | 0.79 ± 0.47 | has no effect or lowers the cellular content | increased | lesser effect to no effect | lesser effect to no effect | 10.7 ± 2.1 | 10.7 ± 2.1 | 10.7 ± 2.1 | pyruvate dehydrogenase, effect in animal experiments ([3]; animal experiments): inhibited; Glucose Assimilation S ([4]; 2.5 mM, incubation time 15): 16.3 ± 0.3 pmol/mg/min; Glucose Assimilation S ([4]; 2.5 mM, incubation time 30): 14.8 ± 0.7 pmol/mg/min; Glucose Assimilation S ([4]; 2.5 mM, incubation time 60): 21.6 ± 0.4 pmol/mg/min; Glucose Assimilation S ([4]; 2.5 mM, incubation time 120): 20.5 ± 0.8 pmol/mg/min; Glucose Assimilation S-(-)α-Liponic Acid ([4]; table 3, 2.5 mM, incubation 15 min): 14.8 ± 0.4 pmol/mg/min; Glucose Assimilation S-(-)α-Liponic Acid ([4]; table 3, 2.5 mM, incubation 30 min): 13.3 ± 0.4 pmol/mg/min; Glucose Assimilation S-(-)α-Liponic Acid ([4]; table 3, 2.5 mM, incubation 60 min): 16.0 ± 0.2 pmol/mg/min; total content of glucose transporters in the cell (GLUT4), in words ([8]; translocation experiment, L6 myotubes): appears to lower |
| Insulin: Insulin, added at a concentration of 200 nM |  |  |  | stimulates |  | 1.07 ± 0.14 |  | stimulates |  |  |  |  |  |  |  |  |  |  | Glucose Assimilation Insulin ([4]; table 2, incubation 15 min): 24.7 ± 0.9 pmol/mg/min; Glucose Assimilation Insulin ([4]; table 2, incubation 30 min): 21.6 ± 0.4 pmol/mg/min; Glucose Assimilation Insulin ([4]; table 2, incubation 60 min): 23.7 ± 0.5 pmol/mg/min; Glucose Assimilation Insulin ([4]; table 3, incubation 15 min): 17.7 ± 0.3 pmol/mg/min; Glucose Assimilation Insulin ([4]; table 3, incubation 30 min): 16.3 ± 0.5 pmol/mg/min; Glucose Assimilation Insulin ([4]; table 3, incubation 60 min): 22.3 ± 0.5 pmol/mg/min; GLUT1 translocation, Plasma Membrane ([5]; table 5, enantiomers 2.5 mM): 1.07 ± 0.14 relative units |
